Patent US9351965B2, “Indazole derivatives useful as ERK inhibitors” (Merck Sharp & Dohme Corp., priority 2010, dated 2016)

biological target: fully phosphorylated, active Mouse ERK2 protein (Mus musculus (Mouse), UniProt P63085); assay: Active ERK2 (aERK) IMAP assay; format: biochemical; settings: IMAP fluorescence polarization; 30 μM ATP; 30 minute pre-incubation
Protocol: 14 μl of kinase buffer (10 mM Tris.HCl pH 7.2, 10 mM MgCl2, 0.01% Tween-20, 1 mM DTT) containing 0.4 ng unphosphorylated Mouse ERK2 protein was added to each well of a black 384-well assay plate. […] DMSO concentration during initial incubation is 6.7%. […] DMSO concentration during ERK activation was 4%. After one hour, reactions were terminated by addition of 60 μl IMAP detections beads in binding buffer (Molecular Devices). Binding was allowed to equilibrate for 30 minutes before reading the plate on an LJL Analyst Fluorescence Polarization plate reader.
Active ERK2 (aERK) Assay:
Activated ERK2 activity was also determined in the IMAP assay format using the procedure outlined above. […] Reactions proceeded for 30 minutes before termination by addition of 60 μl IMAP detection beads in binding buffer. Plates were read as above after 30 minute binding equilibration.

Chain of fully phosphorylated, active Mouse ERK2 protein (P63085 whole entry): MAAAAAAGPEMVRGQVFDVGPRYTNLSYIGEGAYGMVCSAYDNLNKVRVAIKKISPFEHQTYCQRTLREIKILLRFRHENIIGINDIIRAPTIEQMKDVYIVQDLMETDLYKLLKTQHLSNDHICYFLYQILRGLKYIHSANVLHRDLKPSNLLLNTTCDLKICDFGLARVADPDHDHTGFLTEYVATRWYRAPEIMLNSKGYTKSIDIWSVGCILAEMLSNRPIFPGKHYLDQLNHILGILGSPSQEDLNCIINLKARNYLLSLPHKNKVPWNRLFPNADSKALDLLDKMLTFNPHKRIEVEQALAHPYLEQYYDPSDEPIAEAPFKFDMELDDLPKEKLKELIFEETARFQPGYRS

| IC50 [nM] | SMILES |
| --- | --- |
| 264 | Cc1cc(-c2n[nH]c3ccc(C(=O)NC4CCCC(Cn5cc6cc(F)ccc6n5)C4)cc23)ccn1 (mixture of isomers) [compound 124, N-[cis/trans-3-[(5-fluoro-2H-indazol-2-yl)methyl]cyclohexyl]-3-(2-methyl-4-pyridinyl)-1H-indazole-5-carboxamide] |
| 1000 | Cc1cc(-c2n[nH]c3ccc(C(=O)NC4CCCC(Cn5ncc6ccc(C(F)(F)F)cc65)C4)cc23)ccn1 (mixture of isomers) [compound 125, 3-(2-methyl-4-pyridinyl)-N-[cis/trans-3-[[6-(trifluoromethyl)-1H-indazol-1-yl]methyl]cyclohexyl]-1H-indazole-5-carboxamide] |
| 56.6 | Cc1cc(-c2n[nH]c3ccc(C(=O)NC4CCCC(Cn5ncc6cccc(F)c65)C4)cc23)ccn1 (mixture of isomers) [compound 126, N-[cis/trans-3-[(7-fluoro-1H-indazol-1-yl)methyl]cyclohexyl]-3-(2-methyl-4-pyridinyl)-1H-indazole-5-carboxamide] |
| 1000 | CCOC(=O)C1(Cc2ccccc2F)CCCC(NC(=O)c2ccc3[nH]nc(-c4ccnc(C)c4)c3c2)C1 (mixture of isomers) [compound 128, ethyl cis/trans-1-[(2-fluorophenyl)methyl]-3-[[[3-(2-methyl-4-pyridinyl)-1H-indazol-5-yl]carbonyl]amino]cyclo-hexanecarboxylate] |
| 1000 | Cc1cc(-c2n[nH]c3ccc(C(=O)NC4CCCC(CO)(Cc5ccccc5F)C4)cc23)ccn1 (mixture of isomers) [compound 130, N-[cis/trans-3-[(2-fluorophenyl)methyl]-3-(hydroxymethyl)cyclohexyl]-3-(2-methyl-4-pyridinyl)-1H-indazole-5-carboxamide] |
| 1000 | Cc1cc(-c2n[nH]c3ccc(C(=O)NC4CCCC(Cc5ccccc5F)(C(=O)O)C4)cc23)ccn1 (mixture of isomers) [compound 131, cis/trans-1-[(2-fluorophenyl)methyl]-3-[[[3-(2-methyl-4-pyridinyl)-1H-indazol-5-yl]carbonyl]amino]cyclo-hexanecarboxylic acid] |
| 591 | Cc1cc(-c2n[nH]c3ccc(C(=O)N[C@@H]4CCC[C@@](O)(Cn5cc6cccnc6n5)C4)cc23)ccn1 (relative stereo) [compound 78, N-[cis-3-hydroxy-3-(2H-pyrazolo[3,4-b]pyridin-2-ylmethyl)cyclohexyl]-3-(2-methyl-4-pyridinyl)-1H-indazole-5-carboxamide] |
| 8.6 | Cc1cc(-c2n[nH]c3ccc(C(=O)N[C@@H]4CCC[C@@](O)(Cn5ncc6cccnc65)C4)cc23)ccn1 (relative stereo) [compound 79, N-[cis-3-hydroxy-3-(1H-pyrazolo[3,4-b]pyridin-1-ylmethyl)cyclohexyl]-3-(2-methyl-4-pyridinyl)-1H-indazole-5-carboxamide] |
| 35.1 | Cc1cc(-c2n[nH]c3ccc(C(=O)N[C@@H]4CCC[C@@](O)(Cn5ncc6ccncc65)C4)cc23)ccn1 (relative stereo) [compound 80, N-[cis-3-hydroxy-3-(1H-pyrazolo[3,4-c]pyridin-1-ylmethyl)cyclohexyl]-3-(2-methyl-4-pyridinyl)-1H-indazole-5-carboxamide] |

Further lines, the compound ahead of its results:

| SMILES | IC50 [nM] |
| --- | --- |
| Cc1cc(-c2n[nH]c3ccc(C(=O)NC4CCCC(F)(Cc5ccccc5F)C4)cc23)ccn1 (racemic) [compound 54, N-[3-fluoro-3-[(2-fluorophenyl)methyl]cyclohexyl]-3-(2-methyl-4-pyridinyl)-1H-indazole-5-carboxamide (racemic)] | 1000 |
| O=C(N[C@H]1CCC[C@@](O)(Cc2ccccc2F)C1)c1ccc2[nH]nc(-c3ccc4nccn4c3)c2c1 (relative stereo) [compound 9, N-[trans-3-[(2-fluorophenyl)methyl]-3-hydroxycyclohexyl]-3-imidazo[1,2-a]pyridin-6-yl-1H-indazole-5-carboxamide] | 48.7 |
| Cn1cc2cc(-c3n[nH]c4ccc(C(=O)N[C@@H]5CCC[C@@](O)(Cn6ccnc6)C5)cc34)ccc2n1 (relative stereo) [compound 57, N-[cis-3-hydroxy-3-(1H-imidazol-1-ylmethyl)cyclohexyl]-3-(2-methyl-2H-indazol-5-yl)-1H-indazole-5-carboxamide] | 37.8 |
| Cn1cc2cc(-c3n[nH]c4ccc(C(=O)N[C@@H]5CCC[C@](O)(Cn6ccnc6)C5)cc34)ccc2n1 (relative stereo) [compound 58, N-[trans-3-hydroxy-3-(1H-imidazol-1-ylmethyl)cyclohexyl]-3-(2-methyl-2H-indazol-5-yl)-1H-indazole-5-carboxamide] | 62 |
| Cn1cc2cc(-c3n[nH]c4ccc(C(=O)N[C@@H]5CCC[C@](O)(Cn6cccn6)C5)cc34)ccc2n1 (relative stereo) [compound 59, N-[trans-3-hydroxy-3-(1H-pyrazol-1-ylmethyl)cyclohexyl]-3-(2-methyl-2H-indazol-5-yl)-1H-indazole-5-carboxamide] | 67.4 |
| Cn1cc2cc(-c3n[nH]c4ccc(C(=O)N[C@@H]5CCC[C@@](O)(Cn6cccn6)C5)cc34)ccc2n1 (relative stereo) [compound 60, N-[cis-3-hydroxy-3-(1H-pyrazol-1-ylmethyl)cyclohexyl]-3-(2-methyl-2H-indazol-5-yl)-1H-indazole-5-carboxamide] | 151 |
| Cn1cc2cc(-c3n[nH]c4ccc(C(=O)N[C@@H]5CCC[C@](O)(Cn6cnc7ccccc76)C5)cc34)ccc2n1 (relative stereo) [compound 61, N-[trans-3-(1H-benzimidazol-1-ylmethyl)-3-hydroxycyclohexyl]-3-(2-methyl-2H-indazol-5-yl)-1H-indazole-5-carboxamide] | 19.3 |
| Cn1cc2cc(-c3n[nH]c4ccc(C(=O)N[C@@H]5CCC[C@@](O)(Cn6cnc7ccccc76)C5)cc34)ccc2n1 (relative stereo) [compound 62, N-[cis-3-(1H-benzimidazol-1-ylmethyl)-3-hydroxycyclohexyl]-3-(2-methyl-2H-indazol-5-yl)-1H-indazole-5-carboxamide] | 19.9 |
| Cc1cc(-c2n[nH]c3ccc(C(=O)N[C@@H]4CCC[C@](O)(Cn5cncn5)C4)cc23)ccn1 (relative stereo) [compound 63, N-[trans-3-hydroxy-3-(1H-1,2,4-triazol-1-ylmethyl)cyclohexyl]-3-(2-methyl-4-pyridinyl)-1H-indazole-5-carboxamide] | 197 |
| Cc1cc(-c2n[nH]c3ccc(C(=O)N[C@@H]4CCC[C@@](O)(Cn5cncn5)C4)cc23)ccn1 (relative stereo) [compound 64, N-[cis-3-hydroxy-3-(1H-1,2,4-triazol-1-ylmethyl)cyclohexyl]-3-(2-methyl-4-pyridinyl)-1H-indazole-5-carboxamide] | 99.9 |
| Cc1cc(-c2n[nH]c3ccc(C(=O)N[C@@H]4CCC[C@](O)(Cn5c(C(F)(F)F)nc6ccccc65)C4)cc23)ccn1 (relative stereo) [compound 67, N-[trans-3-hydroxy-3-[[2-(trifluoromethyl)-1H-benzimidazol-1-yl]methyl]cyclohexyl]-3-(2-methyl-4-pyridinyl)-1H-indazole-5-carboxamide] | 436 |
| Cc1cc(-c2n[nH]c3ccc(C(=O)N[C@@H]4CCC[C@](O)(Cn5cnc6ncccc65)C4)cc23)ccn1 (relative stereo) [compound 71, N-[trans-3-hydroxy-3-(1H-imidazo[4,5-b]pyridin-1-ylmethyl)cyclohexyl]-3-(2-methyl-4-pyridinyl)-1H-indazole-5-carboxamide] | 464 |
| Cc1cc(-c2n[nH]c3ccc(C(=O)N[C@@H]4CCC[C@](O)(Cn5cnc6cccnc65)C4)cc23)ccn1 (relative stereo) [compound 72, N-[trans-3-hydroxy-3-(3H-imidazo[4,5-b]pyridin-3-ylmethyl)cyclohexyl]-3-(2-methyl-4-pyridinyl)-1H-indazole-5-carboxamide] | 537 |
| Cc1cc(-c2n[nH]c3ccc(C(=O)N[C@@H]4CCC[C@](O)(Cn5cc6cccnc6n5)C4)cc23)ccn1 (relative stereo) [compound 73, N-[trans-3-hydroxy-3-(2H-pyrazolo[3,4-b]pyridin-2-ylmethyl)cyclohexyl]-3-(2-methyl-4-pyridinyl)-1H-indazole-5-carboxamide] | 616 |
| Cc1cc(-c2n[nH]c3ccc(C(=O)N[C@@H]4CCC[C@](O)(Cn5ncc6ccncc65)C4)cc23)ccn1 (relative stereo) [compound 74, N-[trans-3-hydroxy-3-(1H-pyrazolo[3,4-c]pyridin-1-ylmethyl)cyclohexyl]-3-(2-methyl-4-pyridinyl)-1H-indazole-5-carboxamide] | 792 |
| Cc1cc(-c2n[nH]c3ccc(C(=O)N[C@@H]4CCC[C@](O)(Cn5c(C)nc6cnccc65)C4)cc23)ccn1 (relative stereo) [compound 76, N-[trans-3-hydroxy-3-[(2-methyl-1H-imidazo[4,5-c]pyridin-1-yl)methyl]cyclohexyl]-3-(2-methyl-4-pyridinyl)-1H-indazole-5-carboxamide] | 136 |
| Cc1cc(-c2n[nH]c3ccc(C(=O)N[C@@H]4CCC[C@@](O)(Cn5c(C)nc6cnccc65)C4)cc23)ccn1 (relative stereo) [compound 77, N-[cis-3-hydroxy-3-[(2-methyl-1H-imidazo[4,5-c]pyridiN-1-yl)methyl]cyclohexyl]-3-(2-methyl-4-pyridinyl)-1H-indazole-5-carboxamide] | 1000 |
